How the values were obtained:
Assay type in all cases: physicochemical
[1] = Storage stability of Lubiprostone crystal V (crystalline form and degradation to impurity A); settings: six months of storage at about −20° C.
[2] = Crystal form transformation of Lubiprostone crystal V stirred in isopropyl acetate/heptane, XRPD; settings: stirred in isopropyl acetate (0.16 ml)/heptane (0.84 ml) at 20° C., within two hours
Method: X-ray Powder Diffraction (XRPD) Analysis: The XRPD patterns were collected on a Bruker D2 PHASER diffractometer with fixed divergence slits and 1D LYNXEYE detector. The samples (ca. 100 mg) were flatly placed on a sample holder. The prepared samples were analyzed over a 2θ range from 5° to 50° with step size of 0.02 degrees and step time of 1 second using CuKα radiation at a power of 10 mA and 30 kV. The CuKβ radiation was removed by a divergent beam nickel filter.
Lubiprostone crystal V (0.20 g, from Example 9) was added to a mixture of isopropyl acetate (0.16 ml) and heptane (0.84 ml)(i.e., the solvent system for crystallization of US 2010/056808), and the mixture was stirred at 20° C. for 2 hours. The resulting suspension was filtered and rinsed, and then dried under high vacuum at room temperature to give Lubiprostone crystal I. The XRPD results are shown in FIGS. 12(a) and 12(b).
Therefore, the Lubiprostone crystal V is a novel crystalline form of Lubiprostone, and the crystalline form shown in FIG. 2 found in the unit cell of Lubiprostone crystal II by optical microscope is an enantiomorph of Lubiprostone, rather than Lubiprostone crystal V.

[3] = Crystal form stability of Lubiprostone crystal V in the third solvent used for seeded crystallization

stability on storage (other crystalline forms, degraded products of impurity A) [1]: good stability | conversion of crystalline form to Lubiprostone crystal I (XRPD) [2]: completely converted | conversion of crystalline form to Lubiprostone crystal I ([3]; esters such as isopropyl acetate as third solvent): rapidly converted | stability of crystal form against conversion to Lubiprostone crystal I ([3]; o-xylene, m-xylene, ethyl ether, isopropyl ether or methyl tert-butyl ether as third solvent): very stable
Compound: CCCCC(F)(F)[C@@]1(O)CC[C@H]2[C@@H](CC(=O)[C@@H]2CCCCCCC(=O)O)O1 [Lubiprostone crystal V, Lubiprostone]

— US10253011B1, “Lubiprostone crystals and methods for preparing the same” (CHIROGATE INTERNATIONAL INC., priority 2018, dated 2019)
